Measurements published in patent publication US20210253562A1, “ACYLSUFONAMIDE COMPOUNDS USEFUL AS EP3 RECEPTOR ANTAGONISTS” (Janssen Pharmaceutica NV, priority 2018, published 2021).
Where two headings read alike, the source gives them in different places.

Molecular target: T1, EP3 membrane (EP3 receptor) (Homo sapiens, UniProt P43115)
T1 construct: purchased Millipore HTS092M
T1 sequence (P43115 1-390): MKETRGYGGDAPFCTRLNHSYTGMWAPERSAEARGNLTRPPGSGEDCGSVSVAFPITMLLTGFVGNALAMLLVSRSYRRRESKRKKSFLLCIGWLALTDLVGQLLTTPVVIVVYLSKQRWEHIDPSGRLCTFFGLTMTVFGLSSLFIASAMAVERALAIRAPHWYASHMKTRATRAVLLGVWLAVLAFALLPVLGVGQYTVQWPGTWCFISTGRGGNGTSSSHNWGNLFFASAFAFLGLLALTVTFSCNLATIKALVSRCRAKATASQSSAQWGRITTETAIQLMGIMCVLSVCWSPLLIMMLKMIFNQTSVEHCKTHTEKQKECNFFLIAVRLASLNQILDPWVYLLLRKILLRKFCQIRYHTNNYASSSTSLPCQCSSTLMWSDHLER
Test: [3H]-PGE2 binding; EP3 competition binding (SPA)
Procedure: Biological Example 1: [3H]-PGE2 Binding
EP3 competition binding was determined using the following materials and experimental conditions: • Beads=Perkin Elmer RPNQ0001 • [3H]PGE2=Perkin Elmer NET428025UC • 384-well plate=Perkin Elmer 6007290 • EP3 membrane=Millipore HTS092M • Membrane concentration=2 μg/well • Beads concentration=0.25 mg/well • [3H]-PGE2=2 nM; DMSO—0.1% • Binding buffer=50 mM Tris, 10 mM MgCl2, 1 mM EDTA, PH 7.4.
The reaction system was prepared by mixing 5 μl of unlabeled compound; 5 μl of diluted [3H]-PGE2; 5 μl of diluted membrane; and 15 μl of SPA beads dissolved in binding buffer (adding in the following sequence: Unlabeled compound, [3H]-PGE2, Membrane and Beads).
The binding buffer was removed from refrigeration (@ 4° C.) and allowed to warm to room temperature. Test compound (@ stock concentration of […] in DMSO) was serial dilutes (1:3) with 100% DMSO using Echo plate. Diluted test compound (30 nL) was dispensed to the 384-well assay plate (using Echo 550 Labcyte System). To each well was then added assay buffer (5 μl) and each well was spun. Beads were weighed out, dissolved in assay buffer to a concentration of 0.25 mg/15 μl. Original membrane was diluted with assay buffer to a concentration of 2 μg/5 μl. Original [3H]-PGE2 with diluted with assay buffer to a concentration of 12 nM. To each test well were then added diluted [3H]-PGE2 (5 μl), diluted membrane (5 μl), and dissolved beads (15 μl). The plate was equilibrated at room temperature on a plate shaker for 2 hours and then read with a TOPCOUNT scintillation plate reader. Results were analyzed using a Prism program with non-linear regression, one-site fit for Ki.

| Ki | Ki (unit nM) | SMILES |
| --- | --- | --- |
| 218 nM | – | Cc1nc2cc(S(=O)(=O)NC(=O)NC/C(F)=C3\CCCc4cnn(Cc5ccc(Cl)cc5Cl)c43)ccc2o1 [Compound #183, (Z)—N-((2-(1-(2,4-dichlorobenzyl)-1,4,5,6-tetrahydro-7H-indazol-7-ylidene)-2-fluoroethyl)carbamoyl)-2-methylbenzo[d]oxazole-5-sulfonamide] |
| 14 nM | – | Cc1nn(C)cc1S(=O)(=O)NC(=O)NC/C=C1\CCCc2cnn(Cc3ccc(Cl)cc3Cl)c21 [Compound #184, (E)-N-((2-(1-(2,4-dichlorobenzyl)-1,4,5,6-tetrahydro-7H-indazol-7-ylidene)ethyl)carbamoyl)-1,3-dimethyl-1H-pyrazole-4-sulfonamide] |
| 1 nM | – | Cc1cc(S(=O)(=O)NC(=O)NC/C=C2\CCCc3cnn(Cc4ccc(Cl)cc4Cl)c32)sc1Cl [Compound #185, (E)-5-chloro-N-((2-(1-(2,4-dichlorobenzyl)-1,4,5,6-tetrahydro-7H-indazol-7-ylidene)ethyl)carbamoyl)-4-methylthiophene-2-sulfonamide] |
| 30 nM | – | Cn1nc(Cc2ccc(Cl)cc2Cl)c2c1COC/C2=C(/F)CNC(=O)NS(=O)(=O)c1cc(Cl)c(Cl)s1 [Compound #186, (E)-4,5-dichloro-N-((2-(3-(2,4-dichlorobenzyl)-1-methyl-1,7-dihydropyrano[3,4-c]pyrazol-4(5H)-ylidene)-2-fluoroethyl)carbamoyl)thiophene-2-sulfonamide] |
| 1 nM | – | Cc1cc(S(=O)(=O)NC(=O)NC/C(F)=C2\CCCc3[nH]nc(Cc4ccc(Cl)cc4Cl)c32)sc1Cl [Compound #187, (Z)-5-chloro-N-((2-(3-(2,4-dichlorobenzyl)-1,5,6,7-tetrahydro-4H-indazol-4-ylidene)-2-fluoroethyl)carbamoyl)-4-methylthiophene-2-sulfonamide] |
| 8 nM | – | Cc1cc(Cl)ccc1Cc1nnn2c1/C(=C(\F)CNC(=O)NS(=O)(=O)c1cc(C)c(Cl)s1)CCC2 [Compound #188, (Z)-5-chloro-N-((2-(3-(4-chloro-2-methylbenzyl)-6,7-dihydro-[1,2,3]triazolo[1,5-a]pyridin-4(5H)-ylidene)-2-fluoroethyl)carbamoyl)-4-methylthiophene-2-sulfonamide] |
| 1 nM | – | Cn1nc2c(c1Cc1ccc(Cl)cc1Cl)/C(=C(\F)CNC(=O)NS(=O)(=O)c1cc(Cl)c(Cl)s1)COC2 [Compound #189, (E)-4,5-dichloro-N-((2-(3-(2,4-dichlorobenzyl)-2-methyl-2,7-dihydropyrano[3,4-c]pyrazol-4(5H)-ylidene)-2-fluoroethyl)carbamoyl)thiophene-2-sulfonamide] |
| 1 nM | – | Cc1cc(S(=O)(=O)NC(=O)NC/C(F)=C2\COCc3[nH]nc(Cc4ccc(Cl)cc4Cl)c32)sc1Cl [Compound #190, (E)-5-chloro-N-((2-(3-(2,4-dichlorobenzyl)-1,7-dihydropyrano[3,4-c]pyrazol-4(5H)-ylidene)-2-fluoroethyl)carbamoyl)-4-methylthiophene-2-sulfonamide] |
| 15 nM | – | O=C(NC/C(F)=C1\CCCc2cnn(Cc3cnn(-c4ccccc4)c3)c21)NS(=O)(=O)c1cc(Cl)c(Cl)s1 [Compound #191, (Z)-4,5-dichloro-N-((2-fluoro-2-(1-((1-phenyl-1H-pyrazol-4-yl)methyl)-1,4,5,6-tetrahydro-7H-indazol-7-ylidene)ethyl)carbamoyl)thiophene-2-sulfonamide] |
| 6 nM | – | Cc1cc(S(=O)(=O)NC(=O)NC/C=C2\CCCc3cnn(Cc4ccc(Cl)cc4Cl)c32)n(C)n1 [Compound #192, (E)-N-((2-(1-(2,4-dichlorobenzyl)-1,4,5,6-tetrahydro-7H-indazol-7-ylidene)ethyl)carbamoyl)-1,3-dimethyl-1H-pyrazole-5-sulfonamide] |
| 75 nM | – | Cc1cc(S(=O)(=O)NC(=O)NC/C(F)=C2\CCCc3cnn(Cc4ccc(Cl)cc4Cl)c32)n(C)n1 [Compound #193, (Z)—N-((2-(1-(2,4-dichlorobenzyl)-1,4,5,6-tetrahydro-7H-indazol-7-ylidene)-2-fluoroethyl)carbamoyl)-1,3-dimethyl-1H-pyrazole-5-sulfonamide] |
| 25 nM | – | Cn1ncc2ccc(S(=O)(=O)NC(=O)NC/C(F)=C3\CCCc4cnn(Cc5ccc(Cl)cc5Cl)c43)cc21 [Compound #194, (Z)—N-((2-(1-(2,4-dichlorobenzyl)-1,4,5,6-tetrahydro-7H-indazol-7-ylidene)-2-fluoroethyl)carbamoyl)-1-methyl-1H-indazole-6-sulfonamide] |
| 45 nM | – | Cn1ncc2cc(S(=O)(=O)NC(=O)NC/C(F)=C3\CCCc4cnn(Cc5ccc(Cl)cc5Cl)c43)ccc21 [Compound #195, (Z)—N-((2-(1-(2,4-dichlorobenzyl)-1,4,5,6-tetrahydro-7H-indazol-7-ylidene)-2-fluoroethyl)carbamoyl)-1-methyl-1H-indazole-5-sulfonamide] |

Second part, the compound before the results:

| SMILES | Ki | Ki (unit nM) |
| --- | --- | --- |
| CC(C)n1cc(S(=O)(=O)NC(=O)NC/C=C2\CCCc3cnn(Cc4ccc(Cl)cc4Cl)c32)cn1 [Compound #173, (E)-N-((2-(1-(2,4-dichlorobenzyl)-1,4,5,6-tetrahydro-7H-indazol-7-ylidene)ethyl)carbamoyl)-1-isopropyl-1H-pyrazole-4-sulfonamide] | 59 nM | – |
| COc1ccc(S(=O)(=O)NC(=O)NC/C(F)=C2\CCCc3cnn(Cc4ccc(Cl)cc4Cl)c32)cc1OC [Compound #174, (Z)—N-((2-(1-(2,4-dichlorobenzyl)-1,4,5,6-tetrahydro-7H-indazol-7-ylidene)-2-fluoroethyl)carbamoyl)-3,4-dimethoxybenzenesulfonamide] | 149 nM | – |
| COc1cc(S(=O)(=O)NC(=O)NC/C(F)=C2\CCCc3cnn(Cc4ccc(Cl)cc4Cl)c32)ccc1Cl [Compound #175, (Z)-4-Chloro-N-((2-(1-(2,4-dichlorobenzyl)-1,4,5,6-tetrahydro-7H-indazol-7-ylidene)-2-fluoroethyl)carbamoyl)-3-methoxybenzenesulfonamide] | 16 nM | – |
| O=C(NC/C=C1\CCCc2cnn(Cc3ccc(Cl)cc3Cl)c21)NS(=O)(=O)c1ccc2[nH]c(=O)oc2c1 [Compound #176, (E)-N-((2-(1-(2,4-dichlorobenzyl)-1,4,5,6-tetrahydro-7H-indazol-7-ylidene)ethyl)carbamoyl)-2-oxo-2,3-dihydrobenzo[d]oxazole-6-sulfonamide] | 1 nM | – |
| COc1nc2ccc(S(=O)(=O)NC(=O)NC/C=C3\CCCc4cnn(Cc5ccc(Cl)cc5Cl)c43)cc2o1 [Compound #177, (E)-N-((2-(1-(2,4-dichlorobenzyl)-1,4,5,6-tetrahydro-7H-indazol-7-ylidene)ethyl)carbamoyl)-2-methoxybenzo[d]oxazole-6-sulfonamide] | 1 nM | – |
| COc1nc2ccc(S(=O)(=O)NC(=O)NC/C(F)=C3\CCCc4cnn(Cc5ccc(Cl)cc5Cl)c43)cc2o1 [Compound #178, (Z)—N-((2-(1-(2,4-dichlorobenzyl)-1,4,5,6-tetrahydro-7H-indazol-7-ylidene)-2-fluoroethyl)carbamoyl)-2-methoxybenzo[d]oxazole-6-sulfonamide] | 6 nM | – |
| COc1ccc(S(=O)(=O)NC(=O)NC/C(F)=C2\CCCc3[nH]nc(Cc4ccc(Cl)cc4Cl)c32)cc1Cl [Compound #179, (Z)-3-chloro-N-((2-(3-(2,4-dichlorobenzyl)-1,5,6,7-tetrahydro-4H-indazol-4-ylidene)-2-fluoroethyl)carbamoyl)-4-methoxybenzenesulfonamide] | – | 0.4 nM |
| Cc1nn(C)cc1S(=O)(=O)NC(=O)NC/C(F)=C1\CCCc2cnn(Cc3ccc(Cl)cc3Cl)c21 [Compound #180, (Z)—N-((2-(1-(2,4-dichlorobenzyl)-1,4,5,6-tetrahydro-7H-indazol-7-ylidene)-2-fluoroethyl)carbamoyl)-1,3-dimethyl-1H-pyrazole-4-sulfonamide] | 164 nM | – |
| Cc1cc(S(=O)(=O)NC(=O)NC/C(F)=C2\CCCc3onc(Cc4ccc(Cl)cc4Cl)c32)sc1Cl [Compound #181, (Z)-5-chloro-N-((2-(3-(2,4-dichlorobenzyl)-6,7-dihydrobenzo[d]isoxazol-4(5H)-ylidene)-2-fluoroethyl)carbamoyl)-4-methylthiophene-2-sulfonamide] | 6 nM | – |
| CC(=O)Nc1nc(C)c(S(=O)(=O)NC(=O)NC/C(F)=C2\CCCc3cnn(Cc4ccc(Cl)cc4Cl)c32)s1 [Compound #182, (Z)—N-(5-(N-((2-(1-(2,4-dichlorobenzyl)-1,4,5,6-tetrahydro-7H-indazol-7-ylidene)-2-fluoroethyl)carbamoyl)sulfamoyl)-4-methylthiazol-2-yl)acetamide] | 153 nM | – |
